Patent publication US20130266535A1, “METHYL SALICYLATE-BASED ATTRACTANTS FOR VECTORS OF CITRUS GREENING DISEASE” (priority 2012, published 2013)

Tested on: Diaphorina citri
Assay: Two-port T-olfactometer behavioral bioassay with synthetic chemicals vs. clean air (solvent-only wick)
Assay type: in vivo
Settings: for Proportion of D. citri responding to treatment arm: non-infected female adults, treatment vs solvent control arm
Source text: A custom designed two-port divided T-olfactometer [Analytical Research Systems (ARS), Inc. Gainesville, Fla.] that has been thoroughly described in [98] was used to evaluate behavioral response of D. citri. Briefly, the olfactometer consisted of a 30 cm long glass tube with 3.5 cm internal diameter that is bifurcated into two equal halves with a Teflon strip forming a T-maze. Each half served as an arm of the olfactometer enabling the D. citri to make a choice between two potential odor fields. The olfactometer arms were connected to odor sources placed in 35 cm tall×15 cm wide dome shaped guillotine volatile collection chambers (GVCC) (ARS, Gainesville, Fla.) through Teflon-glass tube connectors. The odor sources comprised 14-16 week old Las-infected or non-infected C. sinensis plants placed in GVCC. Purified and humidified air was pushed through the GVCC via two pumps connected to an air delivery system (ARS, Gainesville, Fla.). A constant airflow of 0.1 L/min was maintained through both arms of the olfactometer. The olfactometer was housed within a temperature-controlled room and positioned vertically under a fluorescent 900-lux light bulb within a fiberboard box for uniform light diffusion. This positioning took advantage of the negative geotactic and positive phototactic response of D. citri.
D. citri adults were released individually into the inlet adapter at the base of the olfactometer. An odor source was randomly assigned to one of the arms of the olfactometer at the beginning of each bioassay and was reversed after every 30 insects to eliminate positional bias. Initially, D. citri adults were exposed to clean air vs. clean air in the olfactometer to verify the absence of positional bias. Thereafter, the behavioral response of non-infected or Las-infected D. citri was tested against non-infected versus Las-infected plants. D. citri adults were also exposed to non-infected grafted (sham grafted) vs. non-grafted-non-infected plants to determine the effects of grafting only on D. citri behavior. For each treatment, C. sinensis plants were grafted with C. aurantifolia budwood four months prior to initiating behavioral experiments. A minimum of 150 male or female D. citri adults were examined per treatment combination (five replications of 30 D. citri). Each D. citri that responded to odors was individually subjected to qPCR to determine Las infection status using the procedures described above.
MeSA was released in greater quantities from Las-infected plants than non-infected plants, while MeAN and D-limonene were released in greater quantities by non-infected than infected plants (See results). Therefore, the behavioral response of D. citri to these synthetic chemicals was tested. A known D. citri attractant, β-ocimene, was used as a positive control. All chemicals were obtained from Sigma Aldrich (St Louis, Mo.) with purities ranging between 97 and 99%. Purity of β-ocimene was 90% and contained a mixture of isomers comprising 20-25% limonene. Each treatment was dissolved in 100 μl of dichloromethane and pipetted onto a 2 cm Richmond cotton wick (Petty John Packaging, Inc. Concord, N.C.) at 0.001, 0.01, 0.1, 1.0, 10.0 and 100.0 μg dosages. The control treatment consisted of a cotton wick impregnated with solvent only. The solvent from both treatments was allowed to evaporate within a fume hood for 30 min prior to assays. The bioassay procedures with synthetic chemicals were identical to those described earlier for plant samples. However, in this case, treatments (odor sources) were placed into solid phase micro extraction chambers (SPMEC) (ARS, Gainesville, Fla.) instead of the GVCC described above. The SPMEC consists of a straight glass tube (17.5 cm long×2.5 cm internal diameter) supported with an inlet and outlet valve for incoming and outgoing air streams, respectively. […]

| Compound | Behavioral response of D. citri (attraction/repulsion) (any of the dosages tested (0.001-100 μg)) | Proportion of D. citri responding to treatment arm (dosage 0.001 μg on cotton wick) | Proportion of D. citri responding to treatment arm (dosage 0.01 μg on cotton wick) | Proportion of D. citri responding to treatment arm (dosage 0.1 μg on cotton wick) | Proportion of D. citri responding to treatment arm (dosage 1.0 μg on cotton wick) | Proportion of D. citri responding to treatment arm (dosage 10.0 μg on cotton wick) | Proportion of D. citri responding to treatment arm (dosage 100.0 μg on cotton wick) | Behavioral response of D. citri (attraction/repulsion) (1-100 μg dosages) | Behavioral response of D. citri (attraction/repulsion) (100 μg dosage) | Behavioral response of D. citri (attraction/repulsion) (0.001 μg dosage) |
| --- | --- | --- | --- | --- | --- | --- | --- | --- | --- | --- |
| COC(=O)c1ccccc1N [Methyl anthranilate, methyl anthranilate] | did not attract or repel | 58.06 | 57.14 | 61.76 | 57.33 | 56.10 | 52.27 |  |  |  |
| C=CC(C)=CCC=C(C)C [β-ocimene, reference compound] |  | 52.22 | 54.46 | 53.19 | 60.44 | 61.46 | 62.77 | attractive |  |  |
| C=C(C)[C@H]1CC=C(C)CC1 [D-limonene] |  | 56.06 | 60.87 | 54.39 | 54.65 | 60.24 | 61.54 |  | attracted |  |
| COC(=O)c1ccccc1O [Methyl salicylate, methyl salicylate] |  | 54.00 | 60.44 | 54.76 | 45.12 | 41.03 | 39.56 |  | repelled | attracted |
